According to patent US20060128763A1 (priority 2003, published 2006):

Key:
[1] = DSC scan, FIGS. 3 and 4
physchem = conditions: water, thermodynamic from solid
Protocol: The measurement was performed according to the procedure described in the Korean Pharmacopoeia (Korean Ministry of Health and Welfare, General principle of medical supplies, Vol. 1, Clause 29, the 7th revision) which comprises the steps of dissolving each compound in distilled water to saturation, analyzing the saturated solution with liquid chromatography, and measuring the dissolved amount of each compound based on the amount of amlodipine.

Row | Compound | thermodynamic stability (DSC absorption peak temperature compared with the crystalline form) [1] | solubility (physchem) [µg/mL]
1 | CC1(C)[C@@H]2CC[C@@]1(CS(=O)(=O)O)C(=O)C2.CCOC(=O)C1=C(COCCN)NC(C)=C(C(=O)OC)C1c1ccccc1Cl (centres unmarked) [Amorphous amlodipine camsylate, amorphous amlodipine camsylate] | sufficient thermodynamic stability | –
2 | CCOC(=O)C1=C(COCCN)NC(C)=C(C(=O)OC)C1c1ccccc1Cl (centres unmarked) [Crystalline amlodipine besylate, amlodipine benzenesulfonate] | – | 2350
